Measurements reported in US11000033B2, “Ketone or oxime compound, and herbicide” (NISSAN CHEMICAL CORPORATION, priority 2014, dated 2021).

What was measured:
Type in all cases: in vivo
Abutilon theophrasti = test: Test Example 5: herbicidal effect by foliage application, plastic box (symbol M); settings: 3 weeks after application; for M: Abutilon theophrasti, herbicidal effect (criteria 0-5): 320 g/ha
Outline: (§1)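 Herbicide, formulated as an emulsion and diluted in water, is sprayed onto the aerial parts of 14-day seedlings. These were grown at 25° C. to 30° C. in sterilized diluvial soil; effects are graded after 3 weeks.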

beet [1] = test: Test Example 5: effect on crop by foliage application, plastic box (symbol f); settings: 3 weeks after application; for f: beet, effect on crop (criteria 0-5): 320 g/ha
Outline: (§2)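 Plants were raised from seed in a greenhouse (25° C. to 30° C.) after sowing in a plastic box of sterilized diluvial soil.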

Amaranthus retroflexus [2] = test: Test Example 4: herbicidal effect by soil treatment (symbol N)
Outline: (§3)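 Seeds were sown in sterilized diluvial soil, covered with about 1.5 cm of soil, and the soil surface was sprayed with a water-diluted emulsion of the compound at a predetermined rate. Plants grew in a greenhouse at 25° C. to 30° C.; effects were scored visually 3 weeks after application.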

[3] = tested on: Echinochloa crus-galli var. crus-galli; test: Test Example 4: herbicidal effect by soil treatment (symbol H)
Outline: as §3

beet [4] = test: Test Example 4: effect on crop by soil treatment (symbol f)
Outline: (§4)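 Sterilized diluvial soil, spot sowing, ~1.5 cm soil cover; greenhouse 25–30° C.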

rice plant = test: Test Example 5: effect on crop by foliage application, plastic box (symbol b); settings: 3 weeks after application; for b: directly sowed rice plant, effect on crop (criteria 0-5): 320 g/ha
Outline: as §2

Lolium multiflorum Lam. = test: Test Example 4: herbicidal effect by soil treatment (symbol K)
Outline: as §3

Chenopodium album = test: Test Example 5: herbicidal effect by foliage application, plastic box (symbol O); settings: 3 weeks after application; for O: Chenopodium album, herbicidal effect (criteria 0-5): 320 g/ha
Outline: as §1

Scirpus juncoides = test: Test Example 2: herbicidal activity, application during weed generation in submerged conditions (symbol B); settings: Table 23, grade 0-5 by criteria of Test Example 1
Outline: (§5)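 Treatment timing was the one- to two-leaf stage, with diluted emulsifiable compound dropped onto the paddy water (depth 4 cm) over alluvial soil. All three species grew from a mixed sowing in a 25° C. to 30° C. greenhouse. Injury was judged by eye 3 weeks on.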

Setaria viridis = test: Test Example 5: herbicidal effect by foliage application, plastic box (symbol G); settings: 3 weeks after application; for G: Setaria viridis, herbicidal effect (criteria 0-5): 320 g/ha
Outline: as §1

wheat = test: Test Example 4: effect on crop by soil treatment (symbol e)
Outline: as §4

Stellaria media = test: Test Example 5: herbicidal effect by foliage application, plastic box (symbol P); settings: 3 weeks after application; for P: Stellaria media, herbicidal effect (criteria 0-5): 320 g/ha
Outline: as §1

Amaranthus retroflexus [5] = test: Test Example 5: herbicidal effect by foliage application, plastic box (symbol N); settings: 3 weeks after application; for N: Amaranthus retroflexus, herbicidal effect (criteria 0-5): 320 g/ha
Outline: as §1

Cyperus difformis = test: Test Example 3: herbicidal effect by foliage application, Wagner pot (symbol E)
Outline: (§6)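 The compound, formulated as an emulsion and diluted with water to a predetermined rate, is applied uniformly to leaves of two-week-old seedlings growing in submerged alluvial soil at 25–30 °C. Rice is included. Each plant is assessed 3 weeks later using defined criteria.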

Veronica persica = test: Test Example 5: herbicidal effect by foliage application, plastic box (symbol R); settings: 3 weeks after application; for R: Veronica persica, herbicidal effect (criteria 0-5): 320 g/ha
Outline: as §1

[6] = tested on: Echinochloa oryzacola Vasing.; test: Test Example 2: herbicidal activity, application during weed generation in submerged conditions (symbol A); settings: Table 23, grade 0-5 by criteria of Test Example 1
Outline: as §5

Alopecurus myosuroides = test: Test Example 4: herbicidal effect by soil treatment (symbol J)
Outline: as §3

[7] = tested on: Echinochloa crus-galli var. crus-galli; test: Test Example 3: herbicidal effect by foliage application, Wagner pot (symbol H)
Outline: as §6

soybean = test: Test Example 4: effect on crop by soil treatment (symbol d)
Outline: as §4

[8] = application herbicide amount 320 g/ha
[9] = application herbicide amount 102 g/ha

## CON=C(C)CC1CC(OC(=O)N2CCOCC2)=C(c2c(C)cc(C)cc2C)C1=O (stereo not shown) [1-104]
Abutilon theophrasti
  M: Abutilon theophrasti, herbicidal effect (criteria 0-5): 3 (Herbicidal ratio of 40% or higher and lower than 70%)
Beet [1]
  f: beet, effect on crop (criteria 0-5): 0 (Herbicidal ratio of 5% or lower (almost no effect))
Amaranthus retroflexus [2]; 320 g/ha
  N: Amaranthus retroflexus, herbicidal effect grade: 0 (Herbicidal ratio of 5% or lower (almost no effect))
[3]; 320 g/ha
  H: Echinochloa crus-galli var. crus-galli, herbicidal effect grade: 5 (Herbicidal ratio of 90% or more (almost completely withered))
Beet [4]; 320 g/ha
  f: beet, effect grade on crop: 0 (Herbicidal ratio of 5% or lower (almost no effect))
Rice plant
  b: directly sowed rice plant, effect on crop (criteria 0-5): 5 (Herbicidal ratio of 90% or more (almost completely withered))
Lolium multiflorum Lam.; 320 g/ha
  K: Lolium multiflorum Lam., herbicidal effect grade: 5 (Herbicidal ratio of 90% or more (almost completely withered))
Chenopodium album
  O: Chenopodium album, herbicidal effect (criteria 0-5): 2 (Herbicidal ratio of 20% or higher and lower than 40%)
Scirpus juncoides; [8]
  Herbicidal effect grade, B: Scirpus juncoides: 4 (Herbicidal ratio of 70% or higher and lower than 90%)
Setaria viridis
  G: Setaria viridis, herbicidal effect (criteria 0-5): 5 (Herbicidal ratio of 90% or more (almost completely withered))
wheat; 320 g/ha
  e: wheat, effect grade on crop: 1 (Herbicidal ratio of 5% or higher and lower than 20%)
Stellaria media
  P: Stellaria media, herbicidal effect (criteria 0-5): 1 (Herbicidal ratio of 5% or higher and lower than 20%)
Amaranthus retroflexus [5]
  N: Amaranthus retroflexus, herbicidal effect (criteria 0-5): 0 (Herbicidal ratio of 5% or lower (almost no effect))
Cyperus difformis; [8]
  herbicidal effect on E, grade 0-5: 5 (Herbicidal ratio of 90% or more (almost completely withered))
Veronica persica
  R: Veronica persica, herbicidal effect (criteria 0-5): 1 (Herbicidal ratio of 5% or higher and lower than 20%)
[6]; [8]
  Herbicidal effect grade, A: Echinochloa oryzacola Vasing.: 5 (Herbicidal ratio of 90% or more (almost completely withered))
Alopecurus myosuroides; 320 g/ha
  J: Alopecurus myosuroides, herbicidal effect grade: 5 (Herbicidal ratio of 90% or more (almost completely withered))
[7]; [8]
  herbicidal effect on H (Echinochloa crus-galli var. crus-galli), grade 0-5: 5 (Herbicidal ratio of 90% or more (almost completely withered))
soybean; 320 g/ha
  d: soybean, effect grade on crop: 0 (Herbicidal ratio of 5% or lower (almost no effect))

## CCCCCCCCS(=O)(=O)OC1=C(c2c(C)cc(C)cc2C)C(=O)C(CC(C)=NOC)C1 (stereo not shown) [1-107]
Abutilon theophrasti
  M: Abutilon theophrasti, herbicidal effect (criteria 0-5): 1 (Herbicidal ratio of 5% or higher and lower than 20%)
Beet [1]
  f: beet, effect on crop (criteria 0-5): 0 (Herbicidal ratio of 5% or lower (almost no effect))
Amaranthus retroflexus [2]; 320 g/ha
  N: Amaranthus retroflexus, herbicidal effect grade: 0 (Herbicidal ratio of 5% or lower (almost no effect))
[3]; 320 g/ha
  H: Echinochloa crus-galli var. crus-galli, herbicidal effect grade: 5 (Herbicidal ratio of 90% or more (almost completely withered))
Beet [4]; 320 g/ha
  f: beet, effect grade on crop: 0 (Herbicidal ratio of 5% or lower (almost no effect))
Rice plant
  b: directly sowed rice plant, effect on crop (criteria 0-5): 5 (Herbicidal ratio of 90% or more (almost completely withered))
Lolium multiflorum Lam.; 320 g/ha
  K: Lolium multiflorum Lam., herbicidal effect grade: 5 (Herbicidal ratio of 90% or more (almost completely withered))
Chenopodium album
  O: Chenopodium album, herbicidal effect (criteria 0-5): 0 (Herbicidal ratio of 5% or lower (almost no effect))
Scirpus juncoides; [8]
  Herbicidal effect grade, B: Scirpus juncoides: 2 (Herbicidal ratio of 20% or higher and lower than 40%)
Setaria viridis
  G: Setaria viridis, herbicidal effect (criteria 0-5): 5 (Herbicidal ratio of 90% or more (almost completely withered))
wheat; 320 g/ha
  e: wheat, effect grade on crop: 0 (Herbicidal ratio of 5% or lower (almost no effect))
Stellaria media
  P: Stellaria media, herbicidal effect (criteria 0-5): 0 (Herbicidal ratio of 5% or lower (almost no effect))
Amaranthus retroflexus [5]
  N: Amaranthus retroflexus, herbicidal effect (criteria 0-5): 0 (Herbicidal ratio of 5% or lower (almost no effect))
Cyperus difformis; [8]
  herbicidal effect on E, grade 0-5: 5 (Herbicidal ratio of 90% or more (almost completely withered))
Veronica persica
  R: Veronica persica, herbicidal effect (criteria 0-5): 0 (Herbicidal ratio of 5% or lower (almost no effect))
[6]; [8]
  Herbicidal effect grade, A: Echinochloa oryzacola Vasing.: 5 (Herbicidal ratio of 90% or more (almost completely withered))
Alopecurus myosuroides; 320 g/ha
  J: Alopecurus myosuroides, herbicidal effect grade: 5 (Herbicidal ratio of 90% or more (almost completely withered))
[7]; [8]
  herbicidal effect on H (Echinochloa crus-galli var. crus-galli), grade 0-5: 5 (Herbicidal ratio of 90% or more (almost completely withered))
soybean; 320 g/ha
  d: soybean, effect grade on crop: 0 (Herbicidal ratio of 5% or lower (almost no effect))

## CON=C(C)CC1CC(OC(=O)N(C)C)=C(c2c(C)cc(C)cc2C)C1=O (stereo not shown) [1-108]
Abutilon theophrasti
  M: Abutilon theophrasti, herbicidal effect (criteria 0-5): 4 (Herbicidal ratio of 70% or higher and lower than 90%)
Beet [1]
  f: beet, effect on crop (criteria 0-5): 1 (Herbicidal ratio of 5% or higher and lower than 20%)
Amaranthus retroflexus [2]; 320 g/ha
  N: Amaranthus retroflexus, herbicidal effect grade: 0 (Herbicidal ratio of 5% or lower (almost no effect))
[3]; 320 g/ha
  H: Echinochloa crus-galli var. crus-galli, herbicidal effect grade: 5 (Herbicidal ratio of 90% or more (almost completely withered))
Beet [4]; 320 g/ha
  f: beet, effect grade on crop: 0 (Herbicidal ratio of 5% or lower (almost no effect))
Rice plant
  b: directly sowed rice plant, effect on crop (criteria 0-5): 5 (Herbicidal ratio of 90% or more (almost completely withered))
Lolium multiflorum Lam.; 320 g/ha
  K: Lolium multiflorum Lam., herbicidal effect grade: 5 (Herbicidal ratio of 90% or more (almost completely withered))
Chenopodium album
  O: Chenopodium album, herbicidal effect (criteria 0-5): 0 (Herbicidal ratio of 5% or lower (almost no effect))
Scirpus juncoides; [8]
  Herbicidal effect grade, B: Scirpus juncoides: 3 (Herbicidal ratio of 40% or higher and lower than 70%)
Setaria viridis
  G: Setaria viridis, herbicidal effect (criteria 0-5): 5 (Herbicidal ratio of 90% or more (almost completely withered))
wheat; 320 g/ha
  e: wheat, effect grade on crop: 4 (Herbicidal ratio of 70% or higher and lower than 90%)
Stellaria media
  P: Stellaria media, herbicidal effect (criteria 0-5): 3 (Herbicidal ratio of 40% or higher and lower than 70%)
Amaranthus retroflexus [5]
  N: Amaranthus retroflexus, herbicidal effect (criteria 0-5): 5 (Herbicidal ratio of 90% or more (almost completely withered))
Cyperus difformis; [8]
  herbicidal effect on E, grade 0-5: 5 (Herbicidal ratio of 90% or more (almost completely withered))
Veronica persica
  R: Veronica persica, herbicidal effect (criteria 0-5): 1 (Herbicidal ratio of 5% or higher and lower than 20%)
[6]; [8]
  Herbicidal effect grade, A: Echinochloa oryzacola Vasing.: 5 (Herbicidal ratio of 90% or more (almost completely withered))
Alopecurus myosuroides; 320 g/ha
  J: Alopecurus myosuroides, herbicidal effect grade: 5 (Herbicidal ratio of 90% or more (almost completely withered))
[7]; [8]
  herbicidal effect on H (Echinochloa crus-galli var. crus-galli), grade 0-5: 5 (Herbicidal ratio of 90% or more (almost completely withered))
soybean; 320 g/ha
  d: soybean, effect grade on crop: 0 (Herbicidal ratio of 5% or lower (almost no effect))

## CC(=O)CC1CC(O)=C(c2c(C)cc(C)cc2C)C1=O (stereo not shown) [2-001, 3-hydroxy-2-mesityl-5-(2-oxopropyl)cyclopent-2-enone]
Abutilon theophrasti; 102 g/ha
  M: Abutilon theophrasti, herbicidal effect grade: 1 (Herbicidal ratio of 5% or higher and lower than 20%)
Beet [1]; 102 g/ha
  f: beet, effect on crop grade: 1 (Herbicidal ratio of 5% or higher and lower than 20%)
Amaranthus retroflexus [2]; 102 g/ha
  N: Amaranthus retroflexus, herbicidal effect grade: 1 (Herbicidal ratio of 5% or higher and lower than 20%)
[3]; 102 g/ha
  H: Echinochloa crus-galli var. crus-galli, herbicidal effect grade: 5 (Herbicidal ratio of 90% or more (almost completely withered))
Beet [4]; 102 g/ha
  f: beet, effect grade on crop: 0 (Herbicidal ratio of 5% or lower (almost no effect))
Rice plant; 102 g/ha
  b: directly sowed rice plant, effect on crop grade: 4 (Herbicidal ratio of 70% or higher and lower than 90%)
Lolium multiflorum Lam.; 102 g/ha
  K: Lolium multiflorum Lam., herbicidal effect grade: 5 (Herbicidal ratio of 90% or more (almost completely withered))
Chenopodium album; 102 g/ha
  O: Chenopodium album, herbicidal effect grade: 3 (Herbicidal ratio of 40% or higher and lower than 70%)
Scirpus juncoides; [9]
  Herbicidal effect grade, B: Scirpus juncoides: 0 (Herbicidal ratio of 5% or lower (almost no effect))
Setaria viridis; 102 g/ha
  G: Setaria viridis, herbicidal effect grade: 4 (Herbicidal ratio of 70% or higher and lower than 90%)
wheat; 102 g/ha
  e: wheat, effect grade on crop: 0 (Herbicidal ratio of 5% or lower (almost no effect))
Stellaria media; 102 g/ha
  P: Stellaria media, herbicidal effect grade: 3 (Herbicidal ratio of 40% or higher and lower than 70%)
Amaranthus retroflexus [5]; 102 g/ha
  N: Amaranthus retroflexus, herbicidal effect grade: 2 (Herbicidal ratio of 20% or higher and lower than 40%)
Cyperus difformis; [9]
  herbicidal effect on E, grade 0-5: 5 (Herbicidal ratio of 90% or more (almost completely withered))
Veronica persica; 102 g/ha
  R: Veronica persica, herbicidal effect grade: 2 (Herbicidal ratio of 20% or higher and lower than 40%)
[6]; [9]
  Herbicidal effect grade, A: Echinochloa oryzacola Vasing.: 0 (Herbicidal ratio of 5% or lower (almost no effect))
Alopecurus myosuroides; 102 g/ha
  J: Alopecurus myosuroides, herbicidal effect grade: 4 (Herbicidal ratio of 70% or higher and lower than 90%)
[7]; [9]
  herbicidal effect on H (Echinochloa crus-galli var. crus-galli), grade 0-5: 5 (Herbicidal ratio of 90% or more (almost completely withered))
soybean; 102 g/ha
  d: soybean, effect grade on crop: 0 (Herbicidal ratio of 5% or lower (almost no effect))
